Measured values as given in paper PMC7614683, “A small molecule PI3Kα activator for cardioprotection and neuroregeneration” (Nature, 2023).
Where “and” joins values, the source holds several entries; their conditions need not be identical. Equal values may be shown once. Read-outs that look alike come from different tables or passages of the source.

How the values were obtained:
[1] = tested on: mouse heart; experiment: In vivo model of ischaemia reperfusion injury in mice; settings: 10 mg/kg 1938 i.v., heart after 15 min; single mice
[2] = target: T1, full length p110α/p85α (Homo sapiens, UniProt P42336); experiment: Differential scanning fluorimetry; type: binding; settings: mean ± SD, n=3; read-out: Kd for PI3Kα by differential scanning fluorimetry
T1 construct: Full-length human p110α was expressed either in a complex with full-length human p85α (for HTS, biochemistry and HDX-MS); 6xHis tag followed by TEV protease site (N); host or cells: Spodoptera frugiperda Sf9, baculovirus
Method: Thermal denaturation was followed using intrinsic protein fluorescence measured with the NanoTemper Prometheus NT48 instrument (Nanotemper Technologies, München, Germany). Samples in HBS-P (Cytiva) supplemented with 5% (v/v) DMSO containing 3 μM full length p110α/p85α and a 1:2 dilution series of 1938 (from 440 μM to 13.8 nM) were loaded into standard capillaries and heated at 2 °C/min from 15 to 95 °C. The first derivative of the fluorescence emission ratio 350/330 nm were analyzed using the PR.ThermControl v2.3.1 (NanoTemper), to define the Tm. Independent experiments using the same protein and compound stocks were performed in triplicate. Data were fitted using Prism 9.4.1 (GraphPad Software Inc). Dissociation constants were calculated using fits to a single-site ligand depletion model: (2) T=T0+(T1−T0){([CT]+[PT]+[KD])−([CT]+[PT]+KD)^2−4[CT][PT]}/2[PT] where T0 and T1 are the Tm in the absence of titrating compound and at saturation respectively, [PT] and [CT] are the total concentrations of protein and compound respectively and KD is the dissociation constant.

[3] = target: protein kinases of the Z-LYTE panel (Homo sapiens, UniProt P16591); experiment: SelectScreen Z-LYTE kinase activity assay (SI Table 6); type: biochemical
Outline: (§1)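 Single-point profiling, 1 μM 1938; LanthaScreen binding, Adapta or Z-LYTE read-outs; 133 protein + 7 lipid kinases.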

[4] = target: protein kinases of the Z-LYTE panel (Homo sapiens, UniProt P42684); experiment: as above; type: biochemical
Outline: as §1

[5] = target: protein kinases of the Z-LYTE panel (Homo sapiens, UniProt Q04912); experiment: as above; type: biochemical
Outline: as §1

[6] = target: protein kinases of the Z-LYTE panel (Homo sapiens, UniProt P35968); experiment: as above; type: biochemical
Outline: as §1

[7] = target: protein kinases of the Z-LYTE panel (Homo sapiens, UniProt P23443); experiment: as above; type: biochemical
Outline: as §1

[8] = target: protein kinases of the Z-LYTE panel (Homo sapiens, UniProt P42345); experiment: as above; type: biochemical
Outline: as §1

[9] = target: protein kinases of the Z-LYTE panel (Homo sapiens, UniProt P07949, V804L); experiment: as above; type: biochemical
Outline: as §1

[10] = target: protein kinases of the Z-LYTE panel (Homo sapiens, UniProt P49760); experiment: as above; type: biochemical
Outline: as §1

[11] = target: protein kinases of the Z-LYTE panel (Homo sapiens, UniProt P17252); experiment: as above; type: biochemical
Outline: as §1

[12] = target: protein kinases of the Z-LYTE panel (Homo sapiens, UniProt P00533); experiment: as above; type: biochemical
Outline: as §1

[13] = target: protein kinases of the Z-LYTE panel (Homo sapiens, UniProt P04629); experiment: as above; type: biochemical
Outline: as §1

Chain of protein kinases of the Z-LYTE panel (Homo sapiens, UniProt Q04912) (Q04912 25-1400): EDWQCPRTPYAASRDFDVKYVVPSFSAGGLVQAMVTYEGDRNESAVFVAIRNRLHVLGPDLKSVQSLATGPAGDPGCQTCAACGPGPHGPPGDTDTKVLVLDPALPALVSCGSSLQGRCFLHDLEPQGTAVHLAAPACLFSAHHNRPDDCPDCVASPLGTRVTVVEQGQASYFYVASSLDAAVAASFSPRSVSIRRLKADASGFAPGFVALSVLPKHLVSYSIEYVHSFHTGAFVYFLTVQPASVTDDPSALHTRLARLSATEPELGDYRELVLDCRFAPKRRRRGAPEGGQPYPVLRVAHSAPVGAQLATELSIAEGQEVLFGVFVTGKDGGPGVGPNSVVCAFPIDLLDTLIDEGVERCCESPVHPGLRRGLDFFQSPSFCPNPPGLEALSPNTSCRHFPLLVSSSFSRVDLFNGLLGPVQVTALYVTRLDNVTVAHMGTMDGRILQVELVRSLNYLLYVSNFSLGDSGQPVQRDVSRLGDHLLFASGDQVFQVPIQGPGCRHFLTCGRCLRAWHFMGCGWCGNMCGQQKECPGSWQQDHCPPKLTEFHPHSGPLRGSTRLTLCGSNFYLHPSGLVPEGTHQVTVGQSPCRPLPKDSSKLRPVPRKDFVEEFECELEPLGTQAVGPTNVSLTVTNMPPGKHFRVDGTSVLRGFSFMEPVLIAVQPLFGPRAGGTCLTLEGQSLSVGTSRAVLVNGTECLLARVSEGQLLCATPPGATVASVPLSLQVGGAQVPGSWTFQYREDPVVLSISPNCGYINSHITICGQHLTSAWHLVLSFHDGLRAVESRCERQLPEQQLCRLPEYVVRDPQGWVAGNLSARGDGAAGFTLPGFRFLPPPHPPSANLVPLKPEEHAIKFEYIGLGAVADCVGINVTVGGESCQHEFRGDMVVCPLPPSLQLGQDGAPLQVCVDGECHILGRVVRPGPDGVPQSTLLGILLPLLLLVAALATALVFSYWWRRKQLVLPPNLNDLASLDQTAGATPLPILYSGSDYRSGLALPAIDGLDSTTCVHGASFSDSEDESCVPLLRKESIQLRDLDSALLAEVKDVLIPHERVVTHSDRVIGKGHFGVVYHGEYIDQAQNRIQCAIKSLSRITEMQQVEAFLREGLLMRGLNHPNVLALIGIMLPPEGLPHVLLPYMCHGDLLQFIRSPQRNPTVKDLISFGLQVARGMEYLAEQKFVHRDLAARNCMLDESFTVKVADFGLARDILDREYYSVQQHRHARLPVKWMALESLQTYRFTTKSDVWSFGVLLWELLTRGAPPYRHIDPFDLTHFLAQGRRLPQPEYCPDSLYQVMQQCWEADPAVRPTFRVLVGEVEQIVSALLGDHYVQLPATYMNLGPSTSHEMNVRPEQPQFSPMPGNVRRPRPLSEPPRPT
Chain of protein kinases of the Z-LYTE panel (Homo sapiens, UniProt P23443) (P23443 whole entry): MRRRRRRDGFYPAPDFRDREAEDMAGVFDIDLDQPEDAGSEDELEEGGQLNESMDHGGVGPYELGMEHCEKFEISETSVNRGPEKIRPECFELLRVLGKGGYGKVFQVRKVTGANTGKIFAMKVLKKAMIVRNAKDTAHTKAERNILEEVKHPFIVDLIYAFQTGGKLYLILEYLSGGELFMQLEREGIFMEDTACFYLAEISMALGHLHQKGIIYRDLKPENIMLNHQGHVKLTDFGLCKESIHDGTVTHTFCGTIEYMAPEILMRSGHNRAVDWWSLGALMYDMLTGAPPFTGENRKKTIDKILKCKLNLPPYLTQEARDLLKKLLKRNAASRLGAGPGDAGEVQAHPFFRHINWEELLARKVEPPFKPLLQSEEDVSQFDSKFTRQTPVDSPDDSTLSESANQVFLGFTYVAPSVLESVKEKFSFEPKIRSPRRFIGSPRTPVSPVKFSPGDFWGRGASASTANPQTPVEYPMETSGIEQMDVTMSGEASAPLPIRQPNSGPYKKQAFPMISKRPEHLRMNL
Chain of protein kinases of the Z-LYTE panel (Homo sapiens, UniProt P35968) (P35968 20-1356): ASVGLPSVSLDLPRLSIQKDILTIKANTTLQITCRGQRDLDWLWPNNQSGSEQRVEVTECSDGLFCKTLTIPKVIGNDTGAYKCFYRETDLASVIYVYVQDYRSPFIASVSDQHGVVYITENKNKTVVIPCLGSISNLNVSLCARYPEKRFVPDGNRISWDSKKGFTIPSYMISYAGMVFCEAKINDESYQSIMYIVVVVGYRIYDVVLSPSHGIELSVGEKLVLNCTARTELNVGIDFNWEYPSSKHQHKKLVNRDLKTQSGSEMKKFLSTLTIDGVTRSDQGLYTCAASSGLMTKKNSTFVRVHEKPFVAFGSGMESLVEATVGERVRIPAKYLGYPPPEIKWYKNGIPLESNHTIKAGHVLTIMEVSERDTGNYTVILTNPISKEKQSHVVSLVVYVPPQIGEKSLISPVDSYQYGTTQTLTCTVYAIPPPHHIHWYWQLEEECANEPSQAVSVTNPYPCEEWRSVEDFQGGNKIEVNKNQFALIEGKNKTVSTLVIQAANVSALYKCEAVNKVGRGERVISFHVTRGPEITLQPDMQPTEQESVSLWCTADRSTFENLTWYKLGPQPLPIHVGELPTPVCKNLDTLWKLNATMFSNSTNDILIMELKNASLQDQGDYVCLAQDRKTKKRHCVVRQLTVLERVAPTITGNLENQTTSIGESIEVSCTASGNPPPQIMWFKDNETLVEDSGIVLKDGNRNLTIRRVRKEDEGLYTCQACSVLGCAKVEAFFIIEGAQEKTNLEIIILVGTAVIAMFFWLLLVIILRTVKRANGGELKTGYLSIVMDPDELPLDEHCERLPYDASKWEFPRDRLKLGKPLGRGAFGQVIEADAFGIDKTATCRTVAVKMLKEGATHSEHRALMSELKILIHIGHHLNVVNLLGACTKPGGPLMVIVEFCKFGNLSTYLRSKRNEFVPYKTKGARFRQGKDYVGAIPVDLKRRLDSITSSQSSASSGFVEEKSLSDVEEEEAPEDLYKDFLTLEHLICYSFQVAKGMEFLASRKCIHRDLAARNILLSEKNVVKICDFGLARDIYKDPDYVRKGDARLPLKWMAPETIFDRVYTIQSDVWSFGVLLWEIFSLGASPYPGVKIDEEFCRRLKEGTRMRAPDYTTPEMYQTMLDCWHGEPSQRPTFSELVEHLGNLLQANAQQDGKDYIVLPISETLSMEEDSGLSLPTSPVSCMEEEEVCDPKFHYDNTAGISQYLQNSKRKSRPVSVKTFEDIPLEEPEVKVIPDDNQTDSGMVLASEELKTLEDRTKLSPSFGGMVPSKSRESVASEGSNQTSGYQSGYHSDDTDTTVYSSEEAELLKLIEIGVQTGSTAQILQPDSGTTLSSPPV
Chain of protein kinases of the Z-LYTE panel (Homo sapiens, UniProt P16591) (P16591 whole entry): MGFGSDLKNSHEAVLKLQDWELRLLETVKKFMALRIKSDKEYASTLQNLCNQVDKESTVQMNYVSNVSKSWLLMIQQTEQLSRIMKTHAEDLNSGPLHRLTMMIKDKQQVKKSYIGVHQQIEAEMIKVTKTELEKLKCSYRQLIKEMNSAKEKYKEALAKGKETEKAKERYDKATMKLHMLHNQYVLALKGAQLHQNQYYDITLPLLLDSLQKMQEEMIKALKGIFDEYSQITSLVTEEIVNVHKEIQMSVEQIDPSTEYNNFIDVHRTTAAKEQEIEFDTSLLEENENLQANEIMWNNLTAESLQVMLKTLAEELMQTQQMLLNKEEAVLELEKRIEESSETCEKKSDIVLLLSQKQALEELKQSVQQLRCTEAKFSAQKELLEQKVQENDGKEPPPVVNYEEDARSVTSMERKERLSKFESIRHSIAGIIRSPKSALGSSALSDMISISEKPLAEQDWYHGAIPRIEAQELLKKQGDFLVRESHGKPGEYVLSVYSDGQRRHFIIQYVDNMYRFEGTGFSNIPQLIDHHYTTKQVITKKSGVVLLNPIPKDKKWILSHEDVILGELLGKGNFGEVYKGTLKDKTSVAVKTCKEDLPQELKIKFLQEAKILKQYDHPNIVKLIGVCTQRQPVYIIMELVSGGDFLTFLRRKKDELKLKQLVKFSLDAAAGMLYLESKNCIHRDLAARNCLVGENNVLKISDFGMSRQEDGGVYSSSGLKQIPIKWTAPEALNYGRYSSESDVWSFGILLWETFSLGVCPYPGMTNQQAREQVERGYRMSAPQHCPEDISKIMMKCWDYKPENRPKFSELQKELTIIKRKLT
Chain of protein kinases of the Z-LYTE panel (Homo sapiens, UniProt P49760) (P49760 whole entry): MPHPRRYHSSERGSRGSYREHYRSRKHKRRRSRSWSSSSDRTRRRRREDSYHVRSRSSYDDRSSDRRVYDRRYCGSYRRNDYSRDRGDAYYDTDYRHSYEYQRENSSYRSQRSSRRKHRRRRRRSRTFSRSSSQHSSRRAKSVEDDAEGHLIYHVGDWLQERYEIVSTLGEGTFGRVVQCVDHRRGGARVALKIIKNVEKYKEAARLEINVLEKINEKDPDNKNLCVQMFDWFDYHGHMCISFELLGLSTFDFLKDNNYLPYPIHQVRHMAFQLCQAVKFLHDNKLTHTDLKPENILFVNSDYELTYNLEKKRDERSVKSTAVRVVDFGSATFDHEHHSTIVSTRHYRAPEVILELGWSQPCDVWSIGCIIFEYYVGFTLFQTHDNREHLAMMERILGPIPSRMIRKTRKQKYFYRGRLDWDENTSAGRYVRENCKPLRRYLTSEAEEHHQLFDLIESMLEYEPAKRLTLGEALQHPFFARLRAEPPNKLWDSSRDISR

CCN1CCN(c2ccc(Nc3cc(Nc4cccc5c4N(C(C)=O)CC5)ccn3)cc2)CC1 [Compound 1938]
Western blot pAkt in vivo: pAkt/tAkt [1]: 7.58 and 5.35 and 5.18 | Kd [2]: 16 ± 2 µM | inhibition at 1 µM ([3]; read-out: % Inhibition Point 1): -5.31% | inhibition at 1 µM ([3]; read-out: % Inhibition Point 2): -2.44% | inhibition at 1 µM ([3]; read-out: % Inhibition mean): -4% | inhibition at 1 µM ([4]; read-out: % Inhibition Point 1): 22% | inhibition at 1 µM ([4]; read-out: % Inhibition Point 2): 20% | inhibition at 1 µM ([4]; read-out: % Inhibition mean): 21% | inhibition at 1 µM ([5]; read-out: % Inhibition Point 1): 8% | inhibition at 1 µM ([5]; read-out: % Inhibition Point 2): 8.5% | inhibition at 1 µM ([5]; read-out: % Inhibition mean): 8% | inhibition at 1 µM ([6]; read-out: % Inhibition Point 1): 10% | inhibition at 1 µM ([6]; read-out: % Inhibition Point 2): 6.41% | inhibition at 1 µM ([6]; read-out: % Inhibition mean): 8% | inhibition at 1 µM ([7]; read-out: % Inhibition Point 1): 2.67% | inhibition at 1 µM ([7]; read-out: % Inhibition Point 2): -0.609% | inhibition at 1 µM ([7]; read-out: % Inhibition mean): 1% | inhibition at 1 µM ([8]; read-out: % Inhibition Point 1): -3.66% | inhibition at 1 µM ([8]; read-out: % Inhibition Point 2): -2.5% | inhibition at 1 µM ([8]; read-out: % Inhibition mean): -3% | inhibition at 1 µM ([9]; read-out: % Inhibition Point 1): 11% | inhibition at 1 µM ([9]; read-out: % Inhibition Point 2): 11% | inhibition at 1 µM ([9]; read-out: % Inhibition mean): 11% | inhibition at 1 µM ([10]; read-out: % Inhibition Point 1): 2.33% | inhibition at 1 µM ([10]; read-out: % Inhibition Point 2): 1.66% | inhibition at 1 µM ([10]; read-out: % Inhibition mean): 2% | inhibition at 1 µM ([11]; read-out: % Inhibition Point 1): 13% | inhibition at 1 µM ([11]; read-out: % Inhibition Point 2): 12% | inhibition at 1 µM ([11]; read-out: % Inhibition mean): 13% | inhibition at 1 µM ([12]; read-out: % Inhibition Point 1): 18% | inhibition at 1 µM ([12]; read-out: % Inhibition Point 2): 17% | inhibition at 1 µM ([12]; read-out: % Inhibition mean): 18% | inhibition at 1 µM ([13]; read-out: % Inhibition Point 1): 26% | inhibition at 1 µM ([13]; read-out: % Inhibition Point 2): 20% | inhibition at 1 µM ([13]; read-out: % Inhibition mean): 23%
